# Measurements as given in US7745493B2, “Methods of treating tardive dyskinesia and other movement disorders” (priority 1998, dated 2010).
# Assays:
# Format in all cases: in vivo, human
# [1] = tested on: person two with long-standing TD; assay: CPT with conditions (Vigilance) (Case 1); conditions: ON drug
# Source text: (§1) The following tables report on the results of the neuropsychological tests (Drug I is memantine and Drug II is acamprosate): […]
# [2] = tested on: person two with long-standing TD; assay: Rey Auditory-Verbal Learning Test 15-items (Case 1); conditions: ON drug
# Experimental: On acamprosate, the patient was able to sustain concentration for prolonged periods. […] The patient's cognitive improvement was also assessed using formal neuropsychological measures. The patient was tested while on the drug, then taken off of the drug and tested two days later. On the drug, the patient was able to recall 13 of the 15 items after a short delay as well as 13 of the 15 items after a long delay, as measured by the Rey Auditory Verbal Learning Test. This was in comparison to the patient's ability while off the drug to recall only 7 of the 15 items after a short delay as well as 8 of the items after a long delay in tests performed. In addition, the patient was able to recognize all 15 of the items while on acamprosate but while off the drug (and while having been off of memantine for over 2 months) the patient could only recognize 10 of the items. The order of testing would give the advantage of familiarity to the off-drug condition. Nonetheless, the difference in favor of the on-drug condition was substantial.
# as §1
# [3] = tested on: person one with long-standing TD; assay: Case Report 2: two-sentence memory task; conditions: Case 2; on acamprosate 666 mg three times daily plus memantine
# Experimental: The patient was placed on a treatment regime that included administration of 666 mg of acamprosate, three times daily. In this case, acamprosate was added to the patient's regimen, which continued to include memantine. […] Despite past evidence from formal testing that the patient had impaired short-term memory, they performed normally on a two-sentence memory task, which involved testing the patient's recall ability using two sentences containing 13 separate details. On the two-sentence memory task, within three attempts the patient was able to recall 9 details and, using a multiple choice format, was able to recall a total of 11 details. Recall of 9 details on the third attempt would be normal for a middle-aged adult, let alone one […].
# [4] = tested on: patients with dyskinetic movements (TD, tics); assay: Inventor's overall clinical experience, cases 1-6
# Source text: The ratio of acamprosate to magnesium can be varied to optimize the therapeutic synergy of the two ingredients. […] At typical therapeutic dosages of acetylhomotaurinate, the amount of magnesium is too low to have therapeutically-relevant effects on glutamate transmission. In my experience, I have had excellent therapeutic results from combining a 2 gram daily dosage of acamprosate with 1 gram of elemental magnesium, given as a salt or chelate. […] Allowing for variations in individual response, and variations in the intestinal absorption of both acamprosate and magnesium, I assert that the optimal ratio of mg:acetylhomotaurinate for an individual patient will be somewhere between 1:6 and 1:1. […] Although magnesium N-acetylhomotaurinate may be slightly more efficacious than calcium N-acetylhomotaurinate for treatment of tic disorders, in the present application we are effectively increasing the magnesium content of acamprosate and related compounds by administering magnesium ion (as a salt or chelate) in combination with a salt of N-acetylhomotaurinate, because there is a significant benefit to administering a higher ratio of magnesium to acamprosate than is present in the magnesium salt of acamprosate.
# Relief of symptoms began within 48 hours of administration of acamprosate, and, if a patient discontinued acamprosate, symptoms returned immediately. […]
# [5] = tested on: person two with long-standing TD; assay: Digit Symbol (Case 1); conditions: ON drug, higher score better
# Source text: as §1
# [6] = tested on: person two with long-standing TD; assay: Finger Tapping (Case 1); conditions: ON drug, higher score better
# Source text: as §1
# [7] = tested on: person two with long-standing TD; assay: Grip Strength (Case 1); conditions: ON drug, higher score better
# Source text: as §1
# [8] = tested on: person two with long-standing TD; assay: Figural Fluency (Case 1); conditions: ON drug
# Source text: as §1
# [9] = tested on: person two with long-standing TD; assay: Rey-Osterrieth Complex Figure (Case 1); conditions: ON drug, higher score better
# Source text: as §1
# [10] = of 15 items, higher score better
structure (smiles),measurement,setting,value
"CC(=O)NCCCS(=O)(=O)O [acamprosate, calcium N-acetylhomotaurinate]",CPT Correct,[1]; higher score better,100/100
same,CPT Commission errors,[1]; lower score better,0
same,CPT Omission errors,[1]; lower score better,0
same,CPT Wrong,[1]; lower score better,3
same,RAVLT List A Trial 1,[2]; higher score better,10
same,RAVLT List A Trial 5,[2]; higher score better,14
same,RAVLT List B,[2]; higher score better,8
same,Rey Auditory Verbal Learning Test List A 1-5 total (75 max),[2]; higher score better,63
same,RAVLT False Positive,[2]; lower score better,1
same,RAVLT Intrusions,[2]; lower score better,0
same,RAVLT Perseverations,[2]; lower score better,5
same,RAVLT Long-Delay Free Recall,[2]; [10],13
same,RAVLT Recognition Hits,[2]; [10],15
same,RAVLT Short-Delay Free Recall,[2]; [10],13
same,details recalled within three attempts (of 13 details),[3],9
same,total details recalled using multiple choice format (of 13 details),[3],11
same,time to beginning of relief of symptoms,[4],≤ 48 h
CC12CC3CC(C)(C1)CC(N)(C3)C2 [memantine],Digit Symbol,[5],34
same,Finger Tapping DH,[6],DH = 59.3
same,Finger Tapping NDH,[6],NDH = 48.5
same,Grip Strength DH,[7],DH = 17.7
same,Grip Strength NDH,[7],NDH = 21.7
same,Figural Fluency Unique Designs,[8]; higher score better,124
same,Figural Fluency Perseverations,[8]; lower score better,8
same,Rey-Osterrieth Complex Figure Copy Organization,[9],5
same,Rey-Osterrieth Complex Figure Copy Presence & Accuracy,[9],20
same,Rey-Osterrieth Complex Figure Delayed Retention,[9],−11.1
same,Rey-Osterrieth Complex Figure Immediate Retention,[9],−55
